Patent US11247947B2, “Method of high-pressure purification of [f-18]FEONM” (Institute of Nuclear Energy Research, Atomic Energy …, priority 2019, dated 2022)

Tests used:
[1] = shake-flask lipophilicity (Log P) detection; format: physicochemical; conditions: for Log P: shake-flask gold standard detection
Source text: Besides, the present invention further designs a novel naphthol analogue, [F-18]FEONM, with lipophilicity increased. This is consistent with the concept of the structure design for the present invention. By adding a —C2H4O— functional group to a F-18 end, the lipophilicity of [F-18]FEONM is increased to obtain a potential novel brain imaging agent. The present invention develops the high-pressure isolation and purification to achieve the purpose of purification of [F-18]FEONM without toxic compounds.

[2] = system: P301S/PS19 transgenic mice; assay: brain uptake biodistribution of [F-18]FEONM in P301S/PS19 transgenic mice; format: in vivo; conditions: 12~13 month-old P301S/PS19 transgenic mice; product purified through an alumina solid-phase extraction column; FIG. 2

## CC(=C(C#N)C#N)c1ccc2cc(N(C)CC[18F])ccc2c1 [[F-18]FDDNP, reference compound]
[1]
  Log P: 1.93 ± 0.10

## CC(=C(C#N)C#N)c1ccc2cc(N(C)CCOCCF)ccc2c1 [[F-18]FEONM]
[1]; same shake-flask gold standard detection
  lipophilicity compared with [F-18]FDDNP: higher than [F-18]FDDNP
[1]
  Log P: 2.20 ± 0.17
[2]
  brain uptake biodistribution ratios (result in words): effective to Alzheimer disease stages
